Where “and” joins values, the source holds several entries; their conditions need not be identical. Equal entries are not always repeated. Toxic doses and inconclusive results are not listed.
Test system: P388 leukemia ip, CD2F1 mice, survival T/C
Assay: NCI In Vivo Anticancer Drug Screen. Data for tumor model P388 Leukemia (intraperitoneal) in CD2F1 (CDF1) mice
Conditions: endpoint: median survival time, higher = longer survival
In short: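 Mice carrying the transplanted tumor received test compound or vehicle. Survival was recorded in each group, and the value is the treated-group measurement divided by that of the vehicle-treated control group.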

Q: What does the source list for `OC1C(c2ccccc2)=C(c2ccccc2)C2(c3ccccc3)CC12c1ccccc1` (centres undefined)?
A: T/C (dose: 12.5 mg/kg/injection, schedule: Q04DX003 (ip), vehicle: saline with Tween-80): 93 % of control; T/C (dose: 25.0 mg/kg/injection, schedule: Q04DX003 (ip), vehicle: saline with Tween-80): 117 % of control; T/C (dose: 50.0 mg/kg/injection, schedule: Q04DX003 (ip), vehicle: saline with Tween-80): 88 % of control

Q: How did the T/C (dose: 6.25 mg/kg/injection, schedule: Q01DX009 (ip), vehicle: saline with Tween-80) turn out when `CCCCCCCCCCCCCCCCCC(=O)Nc1ccn(C2OC(CO)C(O)C2O)c(=O)n1` (centres undefined) was run?
A: 196 % of control

Q: And the T/C (dose: 12.5 mg/kg/injection, schedule: Q01DX009 (ip), vehicle: saline with Tween-80)?
A: 177 % of control and 227 % of control (2×)

Q: What about the T/C (dose: 25.0 mg/kg/injection, schedule: Q01DX009 (ip), vehicle: saline with Tween-80) of the same compound?
A: 113 % of control and 267 % of control and 270 % of control

Q: And the T/C (dose: 50.0 mg/kg/injection, schedule: Q01DX009 (ip), vehicle: saline with Tween-80)?
A: 195 % of control and 267 % of control and 270 % of control

Q: What about the T/C (dose: 100.0 mg/kg/injection, schedule: Q01DX009 (ip), vehicle: saline with Tween-80) of the same compound?
A: 86 % of control and 92 % of control

Q: `NC(CSCCc1ccncc1)C(=O)O` (centres undefined) was tested. Which T/C (dose: 6.25 mg/kg/injection, schedule: Q01DX009 (ip), vehicle: saline) did it give?
A: 103 % of control

Q: What about the T/C (dose: 12.5 mg/kg/injection, schedule: Q01DX009 (ip), vehicle: saline) of the same compound?
A: 105 % of control

Q: And the T/C (dose: 25.0 mg/kg/injection, schedule: Q01DX009 (ip), vehicle: saline)?
A: 96 % of control

Q: How did the T/C (dose: 50.0 mg/kg/injection, schedule: Q01DX005 (ip), vehicle: distilled water + alcohol) turn out when `CNC(=O)n1nc(C)cc1C` was run?
A: 108 % of control

Q: What about the T/C (dose: 100.0 mg/kg/injection, schedule: Q01DX005 (ip), vehicle: distilled water + alcohol) of the same compound?
A: 102 % of control

Q: What about the T/C (dose: 200.0 mg/kg/injection, schedule: Q01DX005 (ip), vehicle: distilled water + alcohol) of the same compound?
A: 108 % of control

Q: For `C[n+]1ccccc1-c1ccc[n+](CCCC[n+]2cccc(-c3cccc[n+]3C)c2)c1`, which T/C (dose: 60.0 mg/kg/injection, schedule: Q01DX005 (ip), vehicle: saline with Tween-80) is on record?
A: 106 % of control

Q: What about the T/C (dose: 120.0 mg/kg/injection, schedule: Q01DX005 (ip), vehicle: saline with Tween-80) of the same compound?
A: 116 % of control

Q: How did the T/C (dose: 100.0 mg/kg/injection, schedule: Q01DX001 (ip), vehicle: saline with Tween-80) turn out when `CSC(=S)n1nc(C)c(N=Nc2ccc(F)cc2)c1C` was run?
A: 92 % of control

Q: What about the T/C (dose: 200.0 mg/kg/injection, schedule: Q01DX001 (ip), vehicle: saline with Tween-80) of the same compound?
A: 92 % of control

Q: And the T/C (dose: 400.0 mg/kg/injection, schedule: Q01DX001 (ip), vehicle: saline with Tween-80)?
A: 97 % of control

Q: How did the T/C (dose: 100.0 mg/kg/injection, schedule: Q01DX001 (ip), vehicle: Klucel (hydroxypropylcellulose) (HPC)) turn out when `C=CCN1C(=O)CS/C1=N\NC(=O)Cc1nc2ccccc2[nH]1` was run?
A: 101 % of control

Q: And the T/C (dose: 200.0 mg/kg/injection, schedule: Q01DX001 (ip), vehicle: Klucel (hydroxypropylcellulose) (HPC))?
A: 105 % of control

Q: What about the T/C (dose: 400.0 mg/kg/injection, schedule: Q01DX001 (ip), vehicle: Klucel (hydroxypropylcellulose) (HPC)) of the same compound?
A: 92 % of control

Q: For `Cc1nn2c(nnn2CCO)c1-c1ccccc1`, which T/C (dose: 60.0 mg/kg/injection, schedule: Q01DX005 (ip), vehicle: Klucel (hydroxypropylcellulose) (HPC)) is on record?
A: 105 % of control

Q: What about the T/C (dose: 120.0 mg/kg/injection, schedule: Q01DX005 (ip), vehicle: Klucel (hydroxypropylcellulose) (HPC)) of the same compound?
A: 91 % of control

Q: What about the T/C (dose: 240.0 mg/kg/injection, schedule: Q01DX005 (ip), vehicle: Klucel (hydroxypropylcellulose) (HPC)) of the same compound?
A: 91 % of control

Q: Which results are given for `C=CCCC(=O)SC(C)(C)C`?
A: T/C (dose: 100.0 mg/kg/injection, schedule: Q04DX003 (ip), vehicle: Klucel (hydroxypropylcellulose) (HPC)): 112 % of control; T/C (dose: 200.0 mg/kg/injection, schedule: Q04DX003 (ip), vehicle: Klucel (hydroxypropylcellulose) (HPC)): 110 % of control; T/C (dose: 400.0 mg/kg/injection, schedule: Q04DX003 (ip), vehicle: Klucel (hydroxypropylcellulose) (HPC)): 103 % of control

Q: Which results are given for `CCN(CC)CCn1c(C)nc2c1C(=O)c1nc(C)n(CCN(CC)CC)c1C2=O`?
A: T/C (dose: 6.25 mg/kg/injection, schedule: Q01DX005 (ip), vehicle: saline): 100 % of control; T/C (dose: 12.5 mg/kg/injection, schedule: Q01DX005 (ip), vehicle: saline): 109 % of control

Q: `OCCN1CCN(CCCN2c3cc(Cl)ccc3Sc3sccc32)CC1` was tested. Which T/C (dose: 50.0 mg/kg/injection, schedule: Q01DX005 (ip), vehicle: Klucel (hydroxypropylcellulose) (HPC)) did it give?
A: 92 % of control

Q: What about the T/C (dose: 50.0 mg/kg/injection, schedule: Q01DX005 (ip), vehicle: saline) of the same compound?
A: 100 % of control

Q: What about the T/C (dose: 100.0 mg/kg/injection, schedule: Q01DX005 (ip), vehicle: Klucel (hydroxypropylcellulose) (HPC)) of the same compound?
A: 90 % of control

Q: What about the T/C (dose: 100.0 mg/kg/injection, schedule: Q01DX005 (ip), vehicle: saline) of the same compound?
A: 106 % of control

Q: With `C/C=C(\C)N=NNc1ccccc1` as the compound, how does the T/C (dose: 100.0 mg/kg/injection, schedule: Q04DX003 (ip), vehicle: saline + Tween-80 + alcohol) read?
A: 114 % of control

Q: What about the T/C (dose: 200.0 mg/kg/injection, schedule: Q04DX003 (ip), vehicle: saline + Tween-80 + alcohol) of the same compound?
A: 114 % of control

Q: How did the T/C (dose: 50.0 mg/kg/injection, schedule: Q01DX009 (ip), vehicle: Klucel (hydroxypropylcellulose) (HPC)) turn out when `COc1ccccc1NC(=O)C1C(=O)C(=O)N(c2ccccc2OC)C1=O` (centres undefined) was run?
A: 106 % of control

Q: What about the T/C (dose: 100.0 mg/kg/injection, schedule: Q01DX009 (ip), vehicle: Klucel (hydroxypropylcellulose) (HPC)) of the same compound?
A: 106 % of control

Q: What about the T/C (dose: 200.0 mg/kg/injection, schedule: Q01DX009 (ip), vehicle: Klucel (hydroxypropylcellulose) (HPC)) of the same compound?
A: 100 % of control

From PubChem BioAssay AID330 (DTP/NCI, 2004)
